Consider two molecules from patent US7935853B2, “Micronized composition of a 2,4-disubstituted phenol derivative” (priority 2008, dated 2011).

“And” between values parts separate entries of the source, which are not always exact repeats. Equal values may be shown once.

One assay addresses T1, 5-lipoxygenase (Rattus norvegicus, UniProt P12527).
T1 construct: leukotriene B4 formation (LTB4) by 5-lipoxygenase ex-vivo in rat whole blood stimulated with calcium ionophore; from tissue
T1 sequence (P12527 1-673): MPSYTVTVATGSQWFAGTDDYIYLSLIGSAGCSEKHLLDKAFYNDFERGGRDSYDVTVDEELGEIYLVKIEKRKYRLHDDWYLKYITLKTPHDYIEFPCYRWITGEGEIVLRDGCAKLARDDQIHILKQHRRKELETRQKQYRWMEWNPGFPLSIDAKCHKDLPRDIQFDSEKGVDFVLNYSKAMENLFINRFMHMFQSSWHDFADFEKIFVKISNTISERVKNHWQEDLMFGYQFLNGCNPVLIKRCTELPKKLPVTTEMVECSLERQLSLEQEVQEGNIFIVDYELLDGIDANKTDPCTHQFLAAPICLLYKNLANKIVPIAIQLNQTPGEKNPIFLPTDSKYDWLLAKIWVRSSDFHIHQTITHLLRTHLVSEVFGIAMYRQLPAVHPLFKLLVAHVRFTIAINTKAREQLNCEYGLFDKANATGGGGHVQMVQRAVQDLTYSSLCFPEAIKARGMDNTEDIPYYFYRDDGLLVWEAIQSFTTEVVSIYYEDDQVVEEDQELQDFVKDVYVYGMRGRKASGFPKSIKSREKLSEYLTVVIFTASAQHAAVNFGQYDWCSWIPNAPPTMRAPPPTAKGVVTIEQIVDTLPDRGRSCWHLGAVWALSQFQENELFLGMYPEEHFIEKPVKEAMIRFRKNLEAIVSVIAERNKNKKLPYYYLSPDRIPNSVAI
The experiment in a line: Inhibitory activity over 5-lipoxygenase ex-vivo in rat whole blood (LTB4 by EIA). The following applies: for LTB4 (ng/ml), group mean / LTB4 (ng/ml), individual samples: blood 1 h after last dose, calcium ionophore 30 μM; for LTB4 (ng/ml), individual samples / LTB4 % inhib., individual samples: individual rats. As for the experimental part: In the example shown 3 groups of animals (rats) were used, with 6 rats in each group. The groups were;
1 group 1: control (vehicle)
2 group 2: treated with micronized test substance (10 mg/Kg)
3 group 3: treated with non-micronized test substance (10 mg/Kg)
The distribution of animals to each group was done in a randomized manner at the start of the study.
The test and reference substances were administered orally as a suspension in 0.25% carboximethylcellulose in a dosing volume of 4 ml/kg via an oral cannula.
Test substance administration was carried out once every 24 hours (09 h 00 min) for 5 consecutive days. On the 5th day a blood sample was obtained from each animal (1 mL) 1 hour after administration of the test and reference substances. Blood samples were obtained from the posterior (abdominal) vena cava in sterile syringes containing sodium citrate (4%) as an anticoagulant. Each blood sample was divided into two 0.5 ml aliquots (duplicates). A 1 hour time lapse after test substance administration was used before obtaining the blood samples as it was determined in preliminary studies that this is when there is a greater inhibition of leukotriene synthesis by the test substance.
Immediately after collection of the blood samples, the duplicated aliquots were incubated at 37° C. for 10 min. After this time, the aliquots were stimulated with calcium ionophore (30 μM, final concentration) for 30 min at 37° C. Once the incubation period was over the aliquots were centrifuged at 12.000 g for 2 minutes. The resulting plasma was separated and stored at −20° C. for its posterior analysis. In these samples the concentration of leukotriene B4 was determined by enzyme immunoassay (kit EIA; Amersham).

The subject of assay [1] is pulmonary fibrosis induced by bleomycin in C57/BL6 mice. The experiment in a line: Model of pulmonary fibrosis induced by bleomycin in mice (bronchoalveolar lavage fluid). The class given is in vivo, mouse. As for the experimental part: In the study, female, young and healthy C57/BL6 mice were used, of approximately 9-10 weeks of age at the start of the experimental phase. The choice of C57/BL6 mice was because this is the most commonly used mouse strain in the pulmonary fibrosis model.
Three experimental groups were used in the study:
Group A: (positive control): Bleomycin+Vehicle (PBS) n=10
Group B: Bleomycin+2,4,6-triiodophenol micronized 10 mg/kg q.d. (every 12 hours) n=10
Group C: No treatment (healthy animals) n=1
Where n is the number of animals in each experimental group.
The test item was administered as a suspension in 0.25% methylcellulose (the vehicle). The positive control group received the vehicle.
Both the test item and the vehicle were administered orally in a volume of 5 ml/kg twice per day (q.d.) every 12 hours.
On day 0 pulmonary fibrosis was induced by intratracheal instillation of 0.075 units of bleomycin in 50 μl of sterile saline solution into the lungs of each animal. Immediately afterwards 150 μl of air were introduced intratracheally into each mouse to aid in the pulmonary distribution of the bleomycin.
On day 7 after bleomycin administration, treatment with the test item or vehicle was commenced by oral administration. Treatment was carried out twice per day (every 12 hours) and was continued for 15 days.
On day 21 after bleomycin administration a bronchoalveolar lavage was carried out on all animals. To this effect, mice were anaesthetized with sodium pentobarbital and the trachea of each animal was cannulated. Afterwards 1 ml of PBS at 37° C. was instilled into each lung and re-aspirated back with the use of a syringe. This process was repeated 5 times, each time collecting the aspirated liquid in a vial and combining the liquid obtained from the 5 lavages. The recovered volume of bronchoalveolar lavage was adjusted for all animals to 5 mls.
Once the bronchoalveolar lavage fluid had been obtained, a sample was taken in order to determine cellular viability by trypan blue exclusion. Additionally, a sample of lavage fluid was kept frozen (−20° C.) for subsequent determination of CCL5 and TGF-β concentration by ELISA.
The remaining bronchoalveolar lavage fluid was spun in a cytocentrifuge and stained (Diff-Quick) in order to carry out a differential cell count.
All animals were weighed on arrival at the laboratory and each day during the treatment phase of the experimental period until the end of the study.
For each animal cell viability in bronchoalveolar lavage fluid was determined by Trypan Blue exclusion, and a differential cell count was done by staining cytocentrifuged samples with Diff-Quick stain (this was done on a population of approximately 200 cells per sample). Additionally, the concentration of CCL5 and TGF-β were also determined in bronchoalveolar lavage fluid samples by the use of commercially available ELISA kits specific for mice chemokines from R&D Systems.
The statistical significance of the results was evaluated by use of the statistical package Graphpad Instat 3.
All comparisons were evaluated by the use of Student's t-test (two-way, unpaired data). Values of P≦0.05 were taken as significant.

Setting [2] is: 10 mg/Kg oral once daily 5 days, 10 mg/kg.
Setting [3] is: 10 mg/Kg oral once daily 5 days, vs control, 10 mg/kg.
[4] abbreviates: 10 mg/kg oral twice per day, starting 7 days after bleomycin.
The mark [5] stands for this setting: group mean, day 21, 10 mg/kg oral twice per day from day 7.
[6] abbreviates: group mean, day 21 after bleomycin, 10 mg/kg oral twice per day from day 7.
[7] abbreviates: individual mice, day 21, 10 mg/kg oral twice per day from day 7, listed as Group B, 10 mg/kg.

Consider `Oc1c(I)cc(I)cc1I` [Micronized, 2,4,6-triiodophenol], for which, on 5-lipoxygenase (10 mg/kg, 5 days oral), the “degree of LTB4 inhibition compared with the other form” value is “superior to that obtained with the non-micronized product”. For the same molecule, the “inhibition of leukotriene B4 formation by 5-lipoxygenase ex-vivo (in words)” value at 5-lipoxygenase (10 mg/kg, 5 days oral, P<0.05 ANOVA+Dunnett's test) is “inhibits, in a statistically significant manner”. For the same molecule, the “LTB4 (ng/ml), group mean” value at 5-lipoxygenase (group mean, 6 rats, 10 mg/Kg oral once daily 5 days, 10 mg/kg) was 5.492 ng/mL. Moreover, the “LTB4 (ng/ml), individual samples” value at 5-lipoxygenase (setting [2]) is 6.549 ng/mL and 5.032 ng/mL and 4.583 ng/mL and 6.118 ng/mL and 4.602 ng/mL and 6.067 ng/mL. In addition, the “LTB4 % inhib., individual samples” value at 5-lipoxygenase (setting [3]) is 20.176% and 38.665% and 44.140% and 25.423% and 43.902% and 26.054%. On 5-lipoxygenase (rat, po, group mean, 6 rats, 10 mg/Kg oral once daily 5 days, vs control, read-out: LTB4 % inhib., group mean), the inhibition at 10 mg/kg was 33.1%. Moreover, in assay [1] (setting [4]), the “effect on bleomycin-induced increase of CCL5 and TGFβ in bronchoalveolar lavage fluid (in words)” value is recorded as “very significant inhibition”; the “effect on bleomycin-induced lymphocyte and neutrophil percentages in bronchoalveolar lavage fluid (in words)” value is “reduction of the bleomycin-induced increase in lymphocytes and neutrophil percentages”. In addition, in assay [1] (setting [5]), the “CCL5 concentration in BALF, mean” value was 6.952 pg/mL and the “TGFβ concentration in BALF, mean” value was 40.731 pg/mL. Further, in assay [1] (setting [6]), the “Lymphocytes, differential cell count in bronchoalveolar lavage fluid (%)” value stood at 34.35%; the “Macrophages, differential cell count in bronchoalveolar lavage fluid (%)” value is 60.33%; the “Neutrophils, differential cell count in bronchoalveolar lavage fluid (%)” value is 5.32%. In addition, in assay [1] (setting [7]), the “CCL5 concentration in BALF, individual animals” value was 1.887 pg/mL and 3.041 pg/mL and 6.426 pg/mL and 24.658 pg/mL and 3.426 pg/mL and 2.272 pg/mL; the “TGFβ concentration in BALF, individual animals” value was 6.319 pg/mL and 8.389 pg/mL and 26.335 pg/mL and 38.069 pg/mL and 121.586 pg/mL and 9.770 pg/mL and 74.651 pg/mL.
For `Oc1c(I)cc(I)cc1I` [Non-Micronized, 2,4,6-triiodophenol], the “LTB4 (ng/ml), group mean” value on 5-lipoxygenase (group mean, 6 rats, 10 mg/Kg oral once daily 5 days, listed as S. Ref., 10 mg/kg) is 6.496 ng/mL. Moreover, at 5-lipoxygenase (group mean, 6 rats, 10 mg/Kg oral once daily 5 days, vs control, listed as S. Ref., 10 mg/kg), the “LTB4 % inhib., group mean” value turned out to be 20.818%. Moreover, the “LTB4 (ng/ml), individual samples” value at 5-lipoxygenase (setting [2]) was 6.862 ng/ml and 4.355 ng/ml (2×) and 4.905 ng/ml and 8.818 ng/ml and 9.682 ng/ml. Also, the “LTB4 % inhib., individual samples” value on 5-lipoxygenase (setting [3]) was 16.356% and 46.917% and 40.210% and −7.480% and −18.013%.
